According to patent US20240208992A1, “MACROCYCLES AS CFTR MODULATORS” (Idorsia Pharmaceuticals Ltd, priority 2021, published 2024):

Target: human F508del-CFTR (Homo sapiens, UniProt P13569, DEL508-508)
Assay: F508del-CFTR cell surface expression (corrector activity), DiscoveRx ß-galactosidase complementation chemiluminescence assay in recombinant U2OS cell line;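 further: U2OS cells co-expressing ProLink-tagged F508del-CFTR and a membrane-anchored enzyme acceptor, where more surface CFTR restores β-galactosidase activity measured by chemiluminescence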
[1] = EC50, F508del-CFTR cell surface expression, U2OS cells, 16h compound incubation, geomean values
[2] = U2OS, in relation to Emax of corrector lumacaftor (=100%), arithmetic mean values
[3] = in relation to Emax of corrector lumacaftor (=100%), arithmetic mean values
[4] = EC50, F508del-CFTR cell surface expression, U2OS cell line, 16h compound incubation, geomean values
[5] = U2OS, in relation to the Emax of the corrector lumacaftor (=100%), U2OS cell line, 16h compound incubation, arithmetic mean values

Chain of human F508del-CFTR (P13569 with tags, fused parts or gaps DEL508-508): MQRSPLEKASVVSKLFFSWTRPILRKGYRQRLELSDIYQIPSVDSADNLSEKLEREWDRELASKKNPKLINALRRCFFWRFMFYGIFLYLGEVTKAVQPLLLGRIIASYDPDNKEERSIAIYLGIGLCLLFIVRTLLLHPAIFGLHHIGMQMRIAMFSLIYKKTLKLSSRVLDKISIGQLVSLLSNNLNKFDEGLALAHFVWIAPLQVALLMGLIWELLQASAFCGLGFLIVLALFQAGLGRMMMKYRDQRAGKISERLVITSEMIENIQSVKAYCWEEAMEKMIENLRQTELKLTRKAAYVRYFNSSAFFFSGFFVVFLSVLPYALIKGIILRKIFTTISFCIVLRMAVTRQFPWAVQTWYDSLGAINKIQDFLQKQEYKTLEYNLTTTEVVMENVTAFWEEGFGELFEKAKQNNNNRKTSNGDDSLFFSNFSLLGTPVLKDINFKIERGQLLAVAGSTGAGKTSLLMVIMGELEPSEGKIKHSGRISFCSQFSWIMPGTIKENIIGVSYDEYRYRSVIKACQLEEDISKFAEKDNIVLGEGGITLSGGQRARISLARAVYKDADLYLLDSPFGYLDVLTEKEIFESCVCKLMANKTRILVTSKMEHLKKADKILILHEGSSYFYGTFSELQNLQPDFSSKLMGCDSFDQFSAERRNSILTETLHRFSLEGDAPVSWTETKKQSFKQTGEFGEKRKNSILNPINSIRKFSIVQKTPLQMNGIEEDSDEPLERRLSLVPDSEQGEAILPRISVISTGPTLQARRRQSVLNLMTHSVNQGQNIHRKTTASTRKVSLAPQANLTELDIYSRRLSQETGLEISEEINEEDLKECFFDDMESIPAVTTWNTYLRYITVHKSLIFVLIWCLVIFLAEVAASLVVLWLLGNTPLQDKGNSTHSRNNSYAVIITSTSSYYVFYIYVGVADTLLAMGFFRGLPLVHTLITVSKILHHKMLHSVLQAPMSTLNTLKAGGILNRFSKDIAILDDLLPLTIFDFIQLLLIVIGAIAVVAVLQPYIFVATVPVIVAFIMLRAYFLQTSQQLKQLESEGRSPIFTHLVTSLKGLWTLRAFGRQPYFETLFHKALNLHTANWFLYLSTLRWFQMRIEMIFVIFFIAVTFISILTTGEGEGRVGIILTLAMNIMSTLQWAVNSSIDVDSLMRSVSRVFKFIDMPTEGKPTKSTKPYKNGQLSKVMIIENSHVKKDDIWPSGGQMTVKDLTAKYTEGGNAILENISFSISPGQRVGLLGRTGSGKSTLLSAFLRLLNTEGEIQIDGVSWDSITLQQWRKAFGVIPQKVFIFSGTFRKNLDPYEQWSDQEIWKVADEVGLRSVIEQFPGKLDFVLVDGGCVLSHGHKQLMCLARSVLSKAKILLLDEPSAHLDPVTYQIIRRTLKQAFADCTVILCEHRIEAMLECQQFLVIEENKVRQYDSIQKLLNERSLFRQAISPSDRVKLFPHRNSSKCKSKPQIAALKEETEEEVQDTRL

Row | SMILES | EC50 [1] | EC50 [4] | Emax [5] | other results
1 | Cc1cc(CCNC(=O)[C@@H]2CC(=O)N(C)[C@@H](CC(C)C)C(=O)N(C)[C@@H](CO)C(=O)N[C@H](Cc3ccccc3)COc3ccc4ccccc4c3C(=O)N2)on1 (racemic) [Example 720, (3S,7S,10RS,13R)-13-benzyl-10-(hydroxymethyl)-7-isobutyl-6,9-dimethyl-N-(2-(3-methylisoxazol-5-yl)ethyl)-1,5,8,11-tetraoxo-1,2,3,4,5,6,7,8,9,10,11,12,13,14-tetradecahydronaphtho[1,2-p][1]oxa[4,7,10,14]tetraazacycloheptadecine-3-carboxamide] | 0.881 µM | – | – | Emax [2]: 24%
2 | Cc1nc2ccc3c(c2o1)C(=O)N[C@H](C(=O)NCCc1cccc([C@H](C)O)c1)CC(=O)N(C)[C@@H](CC(C)C)C(=O)N(CCC1CCCCC1)CC(=O)N[C@H](Cc1ccccc1)CO3 (racemic) [Example 728, (8R,14S,18S)-8-benzyl-12-(2-cyclohexylethyl)-N-(3-((RS)-1-hydroxyethyl)phenethyl)-14-isobutyl-2,15-dimethyl-10,13,16,20-tetraoxo-7,8,9,10,11,12,13,14,15,16,17,18,19,20-tetradecahydrooxazolo[4′,5′:5,6]benzo[1,2-p][1]oxa[4,7,10,14]tetraazacycloheptadecine-18-carboxamide] | 0.235 µM | – | – | Emax [2]: 232%
3 | COc1nccc2c1C(=O)NC(C(=O)NCCc1cc(C3CC3)no1)CC(=O)N(C)C(CC(C)C)C(=O)N(C)C(CC1CCC(F)(F)CC1)C(=O)NC(Cc1ccccc1)CO2 (single isomer, unassigned) [Example 661] | 0.421 µM | – | – | Emax [3]: 247%
4 | COc1nccc2c1C(=O)NC(C(=O)NCCc1cc(C3CC3)no1)CC(=O)N(C)C(CC(C)C)C(=O)N(C)C(CC1CCC(F)(F)CC1)C(=O)NC(Cc1ccccc1)CO2 (single isomer, unassigned) [Example 662] | 0.124 µM | – | – | Emax [3]: 297%
5 | COc1nccc2c1C(=O)N[C@H](C(=O)NCCc1cc(C3CC3)no1)CC(=O)N(C)[C@@H](CC(C)C)C(=O)N1CCC3(CC3)C[C@@H]1C(=O)N[C@H](Cc1ccccc1)CO2 (single isomer, unassigned) [Example 669, (7′S,11′S,17a′S,20′R)-20′-benzyl-N-(2-(3-cyclopropylisoxazol-5-yl)ethyl)-11′-isobutyl-4′-methoxy-10′-methyl-5′,9′,12′,18′-tetraoxo-5′,6′,7′,8′,9′,10′,11′,12′,14′,15′,17′,17a′,18′,19′,20′,21′-hexadecahydrospiro[cyclopropane-1,16′-dipyrido[2,1-f:3′,4′-p][1]oxa[4,7,10,14]tetraazacycloheptadecine]-7′-carboxamide] | 0.856 µM | – | – | Emax [2]: 230%
6 | COc1nccc2c1C(=O)N[C@H](C(=O)NCCc1cc(C3CC3)no1)CC(=O)N(C)[C@@H](CC(C)C)C(=O)N1CC[C@@H](c3ccccc3)C[C@H]1C(=O)N[C@H](Cc1ccccc1)CO2 (single isomer, unassigned) [Example 671] | 0.235 µM | – | – | Emax [2]: 179%
7 | CC(C)C[C@H]1C(=O)N2CC[C@H](c3ccccc3)C[C@H]2C(=O)N[C@H](Cc2ccccc2)COc2cnc3ccccc3c2C(=O)N[C@H](C(=O)NCCc2cc(C3CC3)no2)CC(=O)N1C (single isomer, unassigned) [Example 674] | 0.262 µM | – | – | Emax [2]: 133%
8 | COc1cc(CCNC(=O)[C@@H]2CC(=O)N(C)[C@@H](CC(C)C)C(=O)N3CCCC[C@@H]3C(=O)N[C@H](Cc3ccccc3)COc3ccc4ncc(F)cc4c3C(=O)N2)on1 (single isomer, unassigned) [Example 899] | – | – | – | EC50 (EC50, F508del-CFTR cell surface expression, U2OS cells, 16h compound incubation, geomean of several measurements): 0.819 µM; Emax (U2OS, in relation to the Emax of the corrector lumacaftor (=100%), U2OS cells, 16h compound incubation, arithmetic mean): 294%
9 | CCC(=O)CCCCC[C@@H]1NC(=O)[C@H]2CCCCN2C(=O)[C@H]([C@@H](C)CC)NC(=O)[C@H](Cc2cn(OC)c3ccccc23)NC1=O [Apicidin, reference compound] | – | – | – | EC50 (EC50, recombinant U2OS cell line (DiscoveRx) expressing PK-tagged human F508del-CFTR, 16h compound incubation, same conditions as example compounds): > 20 µM
10 | CC(C)C[C@H]1C(=O)N(CCC2CCCCC2)CC(=O)N[C@H](Cc2ccccc2)COc2cc3c(cc2C(=O)N[C@H](C(=O)NCCc2ccc4c(c2)OCO4)CC(=O)N1C)OCO3 [Example 2, (7R,13S,17S)-N-(2-(benzo[d][1,3]dioxol-5-yl)ethyl)-7-benzyl-11-(2-cyclohexylethyl)-13-isobutyl-14-methyl-9,12,15,19-tetraoxo-6,7,8,9,10,11,12,13,14,15,16,17,18,19-tetradecahydro-[1,3]dioxolo[4′,5′:4,5]benzo[1,2-p][1]oxa[4,7,10,14]tetraazacycloheptadecine-17-carboxamide] | – | 0.11 µM | 150% | –
11 | COc1cc2c(cc1OC)C(=O)N[C@H](C(=O)NCCc1ccc3c(c1)CCCO3)CC(=O)N(C)[C@@H](CC(C)C)C(=O)N(C)CC(=O)N[C@H](Cc1ccccc1)CO2 [Example 3, (3R,9S,13S)-3-benzyl-N-(2-(chroman-6-yl)ethyl)-9-isobutyl-17,18-dimethoxy-7,10-dimethyl-5,8,11,15-tetraoxo-2,3,4,5,6,7,8,9,10,11,12,13,14,15-tetradecahydrobenzo[p][1]oxa[4,7,10,14]tetraazacycloheptadecine-13-carboxamide] | – | 0.816 µM | 151% | –
12 | COc1cc2c(cc1OC)C(=O)N[C@H](C(=O)NCCc1ccc3ccoc3c1)CC(=O)N(C)[C@@H](CC(C)C)C(=O)N(C)CC(=O)N[C@H](Cc1ccccc1)CO2 [Example 4, (3R,9S,13S)-N-(2-(benzofuran-6-yl)ethyl)-3-benzyl-9-isobutyl-17,18-dimethoxy-7,10-dimethyl-5,8,11,15-tetraoxo-2,3,4,5,6,7,8,9,10,11,12,13,14,15-tetradecahydrobenzo[p][1]oxa[4,7,10,14]tetraazacycloheptadecine-13-carboxamide] | – | 0.673 µM | 195% | –
13 | CN1CC(=O)N[C@H](Cc2ccccc2)COc2cc3c(cc2C(=O)N[C@H](C(=O)NCCc2ccc4c(c2)OCO4)CC(=O)N(C)[C@@H](CC2CCC2)C1=O)OCO3 [Example 7, (7R,13S,17S)-N-(2-(benzo[d][1,3]dioxol-5-yl)ethyl)-7-benzyl-13-(cyclobutylmethyl)-11,14-dimethyl-9,12,15,19-tetraoxo-6,7,8,9,10,11,12,13,14,15,16,17,18,19-tetradecahydro-[1,3]dioxolo[4′,5′:4,5]benzo[1,2-p][1]oxa[4,7,10,14]tetraazacycloheptadecine-17-carboxamide] | – | 0.398 µM | 118% | –
14 | COc1cc2c(cc1OC)C(=O)N[C@H](C(=O)NCCc1ccc3c(c1)OCCN3C)CC(=O)N(C)[C@@H](CC(C)C)C(=O)N(C)CC(=O)N[C@H](Cc1ccccc1)CO2 [Example 8, (3R,9S,13S)-3-benzyl-9-isobutyl-17,18-dimethoxy-7,10-dimethyl-N-(2-(4-methyl-3,4-dihydro-2H-benzo[b][1,4]oxazin-7-yl)ethyl)-5,8,11,15-tetraoxo-2,3,4,5,6,7,8,9,10,11,12,13,14,15-tetradecahydrobenzo[p][1]oxa[4,7,10,14]tetraazacycloheptadecine-13-carboxamide] | – | 0.887 µM | 210% | –
15 | COc1cccc(CCNC(=O)[C@@H]2CC(=O)N(C)[C@@H](CC(C)C)C(=O)N3CCCC[C@@H]3C(=O)N[C@H](Cc3ccccc3)COc3ccc4ncn(C)c4c3C(=O)N2)c1 [Example 17, (8S,12S,18aR,21R)-21-benzyl-12-isobutyl-N-(3-methoxyphenethyl)-5,11-dimethyl-6,10,13,19-tetraoxo-6,7,8,9,10,11,12,13,16,17,18,18a,19,20,21,22-hexadecahydro-5H,15H-imidazo[4′,5′:5,6]benzo[1,2-p]pyrido[2,1-f][1]oxa[4,7,10,14]tetraazacycloheptadecine-8-carboxamide] | – | 0.466 µM | 180% | –
16 | COc1cccc2c1C(=O)N[C@H](C(=O)NCCc1cnccn1)CC(=O)N(C)[C@@H](CC(C)C)C(=O)N(CCC1CCCCC1)CC(=O)N[C@H](Cc1ccccc1)CO2 [Example 18, (3R,9S,13S)-3-benzyl-7-(2-cyclohexylethyl)-9-isobutyl-16-methoxy-10-methyl-5,8,11,15-tetraoxo-N-(2-(pyrazin-2-yl)ethyl)-2,3,4,5,6,7,8,9,10,11,12,13,14,15-tetradecahydrobenzo[p][1]oxa[4,7,10,14]tetraazacycloheptadecine-13-carboxamide] | – | 0.388 µM | 117% | –
17 | COc1cccc2c1C(=O)N[C@H](C(=O)NCCc1ccncn1)CC(=O)N(C)[C@@H](CC(C)C)C(=O)N(CCC1CCCCC1)CC(=O)N[C@H](Cc1ccccc1)CO2 [Example 19, (3R,9S,13S)-3-benzyl-7-(2-cyclohexylethyl)-9-isobutyl-16-methoxy-10-methyl-5,8,11,15-tetraoxo-N-(2-(pyrimidin-4-yl)ethyl)-2,3,4,5,6,7,8,9,10,11,12,13,14,15-tetradecahydrobenzo[p][1]oxa[4,7,10,14]tetraazacycloheptadecine-13-carboxamide] | – | 0.743 µM | 125% | –
18 | COc1cccc2c1C(=O)N[C@H](C(=O)NCCc1cncnc1)CC(=O)N(C)[C@@H](CC(C)C)C(=O)N(CCC1CCCCC1)CC(=O)N[C@H](Cc1ccccc1)CO2 [Example 20, (3R,9S,13S)-3-benzyl-7-(2-cyclohexylethyl)-9-isobutyl-16-methoxy-10-methyl-5,8,11,15-tetraoxo-N-(2-(pyrimidin-5-yl)ethyl)-2,3,4,5,6,7,8,9,10,11,12,13,14,15-tetradecahydrobenzo[p][1]oxa[4,7,10,14]tetraazacycloheptadecine-13-carboxamide] | – | 0.721 µM | 102% | –
